Measured values from ChEMBL document CHEMBL3991601, “The target landscape of clinical kinase drugs” (Science, 2017).
Calls of active or inactive are those of the source.

Legend:
[1] = biological target: Inosine-5'-monophosphate dehydrogenase 2 (Homo sapiens, UniProt P12268)
[2] = biological target: Adenylate kinase 2, mitochondrial (Homo sapiens, UniProt P54819)
[3] = biological target: Chromodomain-helicase-DNA-binding protein 4 (Homo sapiens, UniProt Q14839)
Adenosine kinase = Adenosine kinase (Homo sapiens, UniProt P55263)
Sequence of Adenosine kinase (P55263 whole entry): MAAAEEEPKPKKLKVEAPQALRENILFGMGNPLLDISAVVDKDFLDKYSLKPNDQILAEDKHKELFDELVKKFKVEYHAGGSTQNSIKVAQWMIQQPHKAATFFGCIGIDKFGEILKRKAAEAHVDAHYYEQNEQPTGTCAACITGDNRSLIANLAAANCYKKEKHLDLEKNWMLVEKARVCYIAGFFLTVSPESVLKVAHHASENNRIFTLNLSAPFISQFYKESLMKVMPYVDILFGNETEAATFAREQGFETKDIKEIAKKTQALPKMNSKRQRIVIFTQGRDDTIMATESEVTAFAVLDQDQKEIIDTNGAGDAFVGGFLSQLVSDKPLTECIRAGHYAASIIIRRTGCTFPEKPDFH

[4] = biological target: Receptor-interacting serine/threonine-protein kinase 3 (Homo sapiens, UniProt Q9Y572)
Sequence of Receptor-interacting serine/threonine-protein kinase 3 (Q9Y572 whole entry): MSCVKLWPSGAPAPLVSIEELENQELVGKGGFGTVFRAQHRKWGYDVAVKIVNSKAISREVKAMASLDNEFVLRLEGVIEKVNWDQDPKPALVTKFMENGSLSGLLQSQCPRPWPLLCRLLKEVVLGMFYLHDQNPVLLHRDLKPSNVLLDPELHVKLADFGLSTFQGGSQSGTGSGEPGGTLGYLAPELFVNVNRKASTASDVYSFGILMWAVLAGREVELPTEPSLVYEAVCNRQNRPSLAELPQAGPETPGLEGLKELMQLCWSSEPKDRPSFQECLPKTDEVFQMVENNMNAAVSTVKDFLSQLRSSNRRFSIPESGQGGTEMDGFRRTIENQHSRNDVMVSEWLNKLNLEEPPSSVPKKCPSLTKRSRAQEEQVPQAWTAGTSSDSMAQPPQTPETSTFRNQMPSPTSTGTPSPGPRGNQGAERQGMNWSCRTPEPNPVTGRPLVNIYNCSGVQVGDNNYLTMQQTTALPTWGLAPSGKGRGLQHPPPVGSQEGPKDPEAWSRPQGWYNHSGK

Septin-9 = biological target: T1, Septin-9 (Homo sapiens, UniProt Q9UHD8)
T1 sequence (Q9UHD8 whole entry): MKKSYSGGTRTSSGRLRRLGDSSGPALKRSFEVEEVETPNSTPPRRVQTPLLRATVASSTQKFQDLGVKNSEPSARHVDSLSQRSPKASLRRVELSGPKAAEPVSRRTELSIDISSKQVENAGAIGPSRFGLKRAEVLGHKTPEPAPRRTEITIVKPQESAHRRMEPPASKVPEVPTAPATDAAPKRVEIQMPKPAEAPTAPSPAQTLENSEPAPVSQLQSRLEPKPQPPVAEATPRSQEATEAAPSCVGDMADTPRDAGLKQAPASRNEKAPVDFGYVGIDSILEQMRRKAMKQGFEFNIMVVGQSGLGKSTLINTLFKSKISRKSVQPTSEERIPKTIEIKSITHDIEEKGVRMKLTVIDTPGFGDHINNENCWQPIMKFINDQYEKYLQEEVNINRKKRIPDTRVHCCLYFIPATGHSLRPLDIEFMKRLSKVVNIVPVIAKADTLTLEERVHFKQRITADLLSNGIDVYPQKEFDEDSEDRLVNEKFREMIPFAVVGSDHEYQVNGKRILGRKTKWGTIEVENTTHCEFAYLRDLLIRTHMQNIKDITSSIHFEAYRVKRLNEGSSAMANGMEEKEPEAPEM
Also: in the data inactive means no Kd found up to 30 µM.

Sequence of Chromodomain-helicase-DNA-binding protein 4 (Q14839 whole entry): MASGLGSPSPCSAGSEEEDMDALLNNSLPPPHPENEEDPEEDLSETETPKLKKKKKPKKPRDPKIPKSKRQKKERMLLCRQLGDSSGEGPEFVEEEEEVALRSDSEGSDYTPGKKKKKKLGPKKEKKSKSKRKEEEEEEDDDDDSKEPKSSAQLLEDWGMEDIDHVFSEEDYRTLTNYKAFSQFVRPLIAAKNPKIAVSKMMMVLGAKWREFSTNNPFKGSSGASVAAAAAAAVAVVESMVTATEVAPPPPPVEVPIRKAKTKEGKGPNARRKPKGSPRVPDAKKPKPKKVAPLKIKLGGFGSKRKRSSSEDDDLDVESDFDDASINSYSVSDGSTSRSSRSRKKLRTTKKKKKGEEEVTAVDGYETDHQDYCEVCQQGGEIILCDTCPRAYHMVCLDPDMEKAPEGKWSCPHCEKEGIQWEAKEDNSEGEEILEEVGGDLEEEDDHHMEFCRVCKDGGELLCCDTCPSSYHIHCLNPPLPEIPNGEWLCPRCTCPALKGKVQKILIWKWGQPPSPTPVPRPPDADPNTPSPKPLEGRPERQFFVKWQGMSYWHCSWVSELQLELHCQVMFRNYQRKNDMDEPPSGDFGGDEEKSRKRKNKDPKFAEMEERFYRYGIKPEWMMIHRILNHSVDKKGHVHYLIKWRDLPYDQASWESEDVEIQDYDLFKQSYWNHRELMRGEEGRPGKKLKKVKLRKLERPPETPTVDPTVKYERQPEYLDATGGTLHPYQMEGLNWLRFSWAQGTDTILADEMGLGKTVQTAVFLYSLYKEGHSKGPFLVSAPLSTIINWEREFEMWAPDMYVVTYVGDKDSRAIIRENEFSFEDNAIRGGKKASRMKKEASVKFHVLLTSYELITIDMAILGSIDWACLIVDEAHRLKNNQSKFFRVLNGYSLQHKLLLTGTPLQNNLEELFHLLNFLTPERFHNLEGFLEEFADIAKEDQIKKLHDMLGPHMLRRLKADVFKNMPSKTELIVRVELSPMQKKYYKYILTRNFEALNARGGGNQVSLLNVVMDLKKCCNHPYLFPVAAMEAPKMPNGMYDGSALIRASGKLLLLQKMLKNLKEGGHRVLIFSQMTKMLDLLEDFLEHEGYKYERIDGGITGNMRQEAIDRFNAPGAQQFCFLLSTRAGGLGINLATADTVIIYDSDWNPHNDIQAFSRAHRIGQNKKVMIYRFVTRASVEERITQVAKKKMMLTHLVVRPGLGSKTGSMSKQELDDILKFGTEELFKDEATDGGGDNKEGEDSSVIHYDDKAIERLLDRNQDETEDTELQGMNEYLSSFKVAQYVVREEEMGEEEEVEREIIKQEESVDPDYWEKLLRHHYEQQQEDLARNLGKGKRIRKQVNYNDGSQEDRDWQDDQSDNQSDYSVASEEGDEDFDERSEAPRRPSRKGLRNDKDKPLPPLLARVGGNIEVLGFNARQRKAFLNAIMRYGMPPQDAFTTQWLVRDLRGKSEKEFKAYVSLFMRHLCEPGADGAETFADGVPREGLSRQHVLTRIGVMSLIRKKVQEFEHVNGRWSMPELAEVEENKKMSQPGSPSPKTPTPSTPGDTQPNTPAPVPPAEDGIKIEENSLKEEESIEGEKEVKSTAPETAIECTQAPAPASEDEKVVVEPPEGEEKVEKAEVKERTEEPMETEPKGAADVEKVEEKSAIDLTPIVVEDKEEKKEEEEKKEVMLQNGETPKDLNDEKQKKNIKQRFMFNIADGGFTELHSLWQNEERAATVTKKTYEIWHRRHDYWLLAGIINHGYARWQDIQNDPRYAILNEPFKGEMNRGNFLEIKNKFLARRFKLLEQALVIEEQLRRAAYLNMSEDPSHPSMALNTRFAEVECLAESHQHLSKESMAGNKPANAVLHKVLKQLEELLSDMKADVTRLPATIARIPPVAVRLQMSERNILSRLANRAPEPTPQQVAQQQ

CNC(=O)c1ccccc1Sc1ccc2c(/C=C/c3ccccn3)n[nH]c2c1 [AXITINIB]
Kd [1]: > 30 µM (inactive) | Kd [2]: > 30 µM (inactive) | Kd [3]: > 30 µM (inactive) | Kd (Adenosine kinase): > 30 µM (inactive) | Kd [4]: > 30 µM (inactive) | Kd (Septin-9): > 30 µM (inactive)

Cn1cc(C2=C(c3cn(C4CCN(Cc5ccccn5)CC4)c4ccccc34)C(=O)NC2=O)c2ccccc21 [ENZASTAURIN]
Kd [1]: > 30 µM (inactive) | Kd [2]: > 30 µM (inactive) | Kd (Adenosine kinase): > 30 µM (inactive) | Kd [4]: > 30 µM (inactive) | Kd (Septin-9): > 30 µM (inactive)

C[C@@H](Oc1cc(-n2cnc3ccc(CN4CCN(C)CC4)cc32)sc1C(N)=O)c1ccccc1C(F)(F)F [GSK-461364]
Kd [1]: > 30 µM (inactive) | Kd [2]: > 30 µM (inactive) | Kd [3]: > 30 µM (inactive) | Kd (Adenosine kinase): 2.51 µM (active) | Kd [4]: > 30 µM (inactive) | Kd (Septin-9): > 30 µM (inactive)

O=C(NOCCO)c1cc(CN2OCCCC2=O)c(F)c(F)c1Nc1ccc(I)cc1F [RO-4987655]
Kd [1]: > 30 µM (inactive) | Kd [2]: > 30 µM (inactive) | Kd [3]: > 30 µM (inactive) | Kd [4]: > 30 µM (inactive) | Kd (Septin-9): > 30 µM (inactive)

N#CC[C@H](C1CCCC1)n1cc(-c2ncnc3[nH]ccc23)cn1 [RUXOLITINIB]
Kd [1]: > 30 µM (inactive) | Kd [2]: > 30 µM (inactive) | Kd [3]: > 30 µM (inactive) | Kd (Adenosine kinase): > 30 µM (inactive) | Kd [4]: > 30 µM (inactive) | Kd (Septin-9): > 30 µM (inactive)
